Measured values taken from PubChem BioAssay AID1996.
Values after ≈ are worked out from the molar mass of the structure shown.

Details: buffer; pH 7.4; 200.0 µM

Row | Compound | solubility kinetic
1 | COc1ccccc1C(=O)C1CCCN(C(=O)C2CCCC2)C1 (stereo not given) | > 47.3 µg/mL
2 | COc1ccc(C)cc1S(=O)(=O)N1CCCCCC1 | 40.7 µg/mL (≈ 144 µM)
3 | CCC1CCCCN1C(=O)COC(=O)COc1ccc(Br)cc1 (stereo not given) | > 57.6 µg/mL
4 | O=C(NCc1ccc2c(c1)OCO2)c1ccco1 | > 36.8 µg/mL
5 | O=C(COc1ccccc1Br)N1CCNC1=O | 42.2 µg/mL (≈ 141 µM)
6 | CC1CCC(N(CCCN)Cc2ccco2)CC1C (stereo not given) | 31.6 µg/mL (≈ 120 µM)
7 | COc1cc(OC)cc(-c2nc(-c3cccs3)no2)c1 | < 0.3 µg/mL
8 | CS(=O)(=O)Nc1ccc(S(=O)(=O)N2CCCC2)cc1 | > 45.7 µg/mL
9 | CC1CCN(S(=O)(=O)c2ccccc2)CC1 | 25.8 µg/mL (≈ 108 µM)
10 | O=C(NCc1cccnc1)C12CC3CC(CC(Cl)(C3)C1)C2 | 43.2 µg/mL (≈ 142 µM)
11 | COc1ccc(NC(=S)NC(=O)c2cccnc2)cc1 | 15.5 µg/mL (≈ 53.9 µM)
12 | Cc1ccc(NC(=O)c2ccc(Cl)c(S(=O)(=O)NCc3ccco3)c2)c(O)c1 | 7.3 µg/mL (≈ 17.3 µM)
13 | CN(CC(=O)Nc1ccccc1C(=O)Nc1ccccc1)C1CCCCC1 | 2.4 µg/mL (≈ 6.57 µM)
14 | O=C(OCCC1Oc2cccnc2NC1=O)c1ccc(Cl)cc1 (stereo not given) | 4 µg/mL (≈ 12 µM)
15 | CCc1cccc(NC(=S)N(CCOC)C(C)c2ccco2)c1 (stereo not given) | 7.9 µg/mL (≈ 23.8 µM)
16 | CCOc1ncccc1C(=O)NCCCSc1ccccc1 | 34.2 µg/mL (≈ 108 µM)
17 | Cl.Fc1ccc(Nc2nc(NCc3ccco3)c3ccccc3n2)cc1 | 2.1 µg/mL
18 | CCOC(=O)C1CCN(C(C)C(=O)c2c[nH]c3ccccc23)CC1 (stereo not given) | > 49.3 µg/mL
19 | FC(F)(F)c1ccnc(Oc2ccc(C3=NCCS3)cc2)c1 | 2.2 µg/mL (≈ 6.78 µM)
20 | C#CCOc1ccc(Cl)cc1/C=C1/C(=O)ON=C1C | > 41.4 µg/mL

Row | Compound | solubility kinetic
21 | CN1CCCN(C(=O)CNC(=O)c2ccc(Cl)cc2Cl)CC1 | 50.8 µg/mL (≈ 148 µM)
22 | O=[N+]([O-])CC(c1ccccc1)P(=O)(c1ccccc1)c1ccccc1 (stereo not given) | 9.1 µg/mL (≈ 25.9 µM)
23 | O=C(OCC(=O)N1CCCCCC1)c1ccc[nH]c1=O | > 41.7 µg/mL
24 | O=C(COC(=O)c1ccc[n+]([O-])c1)Nc1ccc([N+](=O)[O-])cc1Cl | > 52.8 µg/mL
25 | CN(c1ccccc1)c1nc(N)c([N+](=O)[O-])c(Nc2ccccc2)n1 | < 0.1 µg/mL
26 | CN(C)c1cccc(C(=O)OCC(=O)c2ccc[nH]2)c1 | > 40.8 µg/mL
27 | O=C1CNC(=S)N1Cc1cccc(Cl)c1 | > 36.1 µg/mL
28 | CC(C)S(=O)(=O)c1csc(NC(=O)Nc2cccc([N+](=O)[O-])c2)c1Cl | < 0.3 µg/mL
29 | COc1cc(C(=O)O/N=C2\C=CC(=O)C(C)=C2)cc(OC)c1OC | > 49.7 µg/mL
30 | Cc1cccc(C)c1NC(=S)NCc1ccccc1 | > 40.6 µg/mL
31 | O=[N+]([O-])c1ccc(N2CCN(c3ccccc3)CC2)nc1 | 0.6 µg/mL (≈ 2.11 µM)
32 | CC(C)N(Cc1ccccc1)C(=S)NC1CCCCC1 | 13.1 µg/mL (≈ 45.1 µM)
33 | Nc1cc(=O)[nH]c(=O)n1CCc1ccccc1 | > 34.7 µg/mL
34 | O=C(c1ccc(F)cc1)N1CCC2(CC1)OCCO2 | 39.2 µg/mL (≈ 148 µM)
35 | CCc1nc(Nc2ccccc2OC)c2oc3ccccc3c2n1.Cl | < 0.3 µg/mL
36 | Oc1c(CN2CCCCC2)cc(Br)c2cccnc12 | 33.6 µg/mL (≈ 105 µM)
37 | CCc1ccccc1NC(=O)C1CC(c2ccc(OC)cc2)=NO1 (stereo not given) | 45.3 µg/mL (≈ 140 µM)
38 | CCCc1ccc(C(=O)/C=C/N(C)C)cc1 | 26.9 µg/mL (≈ 124 µM)
39 | Cc1nc2ccccc2c2c1CC(C(C)(Cl)Br)O2 (stereo not given) | 26.7 µg/mL (≈ 81.7 µM)
40 | CC(C)(C)NC(=O)CSc1nc2cc(S(=O)(=O)N3CCCCC3)ccc2o1 | 3.7 µg/mL (≈ 8.99 µM)

Row | Compound | solubility kinetic
41 | COc1ccc(Cl)cc1NC(=S)N1CCCCCC1 | 42.7 µg/mL (≈ 143 µM)
42 | CN(Cc1ccccn1)Cc1nc(-c2ccc(Cl)cc2)no1 | 35.5 µg/mL (≈ 113 µM)
43 | CN1C(=O)C(O)(C2CCCCCC2=O)c2ccccc21 (stereo not given) | > 41 µg/mL
44 | COCc1cc(C)nc(SCc2ccc([N+](=O)[O-])cc2)c1C#N | 5.2 µg/mL (≈ 15.8 µM)
45 | CCOC(=O)CNC(=O)CSc1nc(-c2ccccc2)ns1 | > 50.6 µg/mL
46 | CCCCOc1ccc(N=Cc2ccc[nH]2)cc1 | 34.9 µg/mL (≈ 144 µM)
47 | Cc1cccc(NC(=O)NCC(c2ccco2)N2CCCCC2)c1 (stereo not given) | > 49.1 µg/mL
48 | O=C(COC(=O)Cn1cnc2ccccc21)Nc1ccc(F)c(F)c1 | > 51.8 µg/mL
49 | Cl.O=C(/C=C/c1cccc(F)c1)NCCCn1ccnc1 | > 46.5 µg/mL
50 | O=C(CC1Sc2ccccc2NC1=O)NCc1ccccc1 (stereo not given) | 0.4 µg/mL (≈ 1.28 µM)
51 | Cc1ccc(NC(=O)CNC(=O)c2ccc(C(C)(C)C)cc2)cc1S(=O)(=O)N1CCOCC1 | 16.1 µg/mL (≈ 34 µM)
52 | CN1CCN(NC(=O)NC2CCCCC2)CC1 | > 36.1 µg/mL
53 | CN(C)/C=C1\N=C(c2cccnc2Oc2ccc(Cl)cc2)OC1=O | 1.6 µg/mL (≈ 4.65 µM)
54 | Cn1cccc1CNC(=S)Nc1ccccc1F | > 39.5 µg/mL
55 | O=C(NC(=S)Nc1cc([N+](=O)[O-])ccc1O)c1cccnc1 | 13.5 µg/mL (≈ 42.4 µM)
56 | Cc1cccc(C)c1OCC(=O)N1CCc2ccccc2C1 | 34.5 µg/mL (≈ 117 µM)
57 | COC(=O)C(Cc1ccccc1)NC(=O)CCc1c[nH]c2ccccc12 (stereo not given) | > 52.6 µg/mL
58 | O=C(Nc1cccc(NC(=O)c2ccccc2)n1)c1ccccc1 | 16.8 µg/mL (≈ 52.9 µM)
59 | CC(C)C(=O)Nc1c2c(nn1-c1ccc(F)cc1)CS(=O)(=O)C2 | > 50.6 µg/mL
60 | CC1(C)C2([N+](=O)[O-])CN3CC1([N+](=O)[O-])CN(C2)C3c1ccc(O)c(O)c1 (stereo not given) | 3.5 µg/mL (≈ 9.61 µM)
